{"source": "patent US5149631A", "about": "“Compound marked with tritium, its preparation and its use in the location of nuclear receptors of retinoids” (Centre International de Recherches Dermatologiques Galderma …, priority 1989, dated 1992)", "key": {"[1]": {"tested_on": "retinoic acid nuclear receptors (RARs)", "assay": "Fixing on nuclear receptors RARs in nucleosol of F9 cells, analysed by HPSEC", "type": "binding, murin", "conditions": "for molecules of ligand fixed to the RARs per cell (HPSEC peak surface standardized to number of cells): F9 cells, 20 nM tritiated ligand", "protocol": "Cultures of F9 cells of murin embryonic carcinoma (normally four 90 mm dishes containing in total 4-7×10^7 cells per incubation condition) were washed once with pBS (saline phosphate buffer) and incubated for 3 hours in a medium, without serum, supplemented with the marked retinoic homolog (to verify the specifity). The cells were then detached with a trypsin-EDTA mixture and numbered with a Burker hemocytometer. […] 50 μl of marked extract were injected on a 9×250 mm GF 250 column (Dupont de Nemours). The elution was carried out in a buffer 0.3M KH2 PO4, pH 7.8 at a rate of 1 ml/min. The protein content was followed by measuring the optical density at 280 nm. 28 fractions of 0.3 ml each were collected and counted in Picofluor (Packard) scintillating agent. For each retinoid concentration, the number of bonded molecules was determined using the surface of the radioactivity peak and the calculated concentration of demisaturation (C50). The molecular weight calibration of the column was carried out using human albumin (67 kDa), ovalbumin (45 kDa) and myoglobin (16.8 kDa). The dose-response curves and the competition curves were analyzed on a computer through nonlinear regression using the various forms of the Clark equation."}, "[2]": {"target": "T1, CRABP (cellular retinoic acid binding protein) (Rattus norvegicus, UniProt P62966)", "T1 construct": "rat testicle cytosol containing CRABP; from tissue; host or cells: rat testicle homogenate / cytosol", "T1 sequence (P62966 whole entry)": "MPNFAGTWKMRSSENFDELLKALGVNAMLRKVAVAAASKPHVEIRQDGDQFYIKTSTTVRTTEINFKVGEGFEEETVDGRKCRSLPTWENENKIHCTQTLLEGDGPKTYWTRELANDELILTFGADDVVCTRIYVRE", "assay": "Direct fixing on CRABP binding protein in rat testicle cytosol, Sephadex G25 separation", "protocol": "The difference ( -- ) represents the specific bond.\nThe total fixing non-specific+specific ( .circle.-- .circle.) is obtained by incubation of increasing concentration (up to a maximum of […]) of the claimed compound with a constant quantity (0.3 ml) of a rat testicle homogenate (CRABP-rich organ). The non-specific fixing of the tritiated compound is determined in parallel, by measuring the fixing with increasing concentrations of the radioactive ligand in the presence of a large excess (1 μm) of cold homolog ligand (.quadrature.--.quadrature.). An incubation time of two hours is necessary for the establishment of balanced conditions.\nThe elution is done directly in scintillation tubes and the radioactivity is measured by counting.\nThe difference between the total fixing curve ( .circle.-- .circle.) and non-specific fixing (.quadrature.--.quadrature.) gives the specific fixing curve ( -- ). Analysis of this curve provides the dissociation constant at equilibrium (Kd) which is the concentration of the product required for 50% saturation of CRABP. This constant is a measurement of the affinity of the ligand for its bonding protein, Kd being inversely proportional to affinity (the smaller the Kd, the greater the affinity)."}}, "data": [{"molecule": "[3H]c1cc(-c2ccc3cc(C(=O)O)ccc3c2[3H])cc(C23CC4CC(CC(C4)C2)C3)c1OC", "note": "[Example 1, 6-[3-(1-adamantyl)-4-methoxyphenyl]-2-naphthoic acid marked with tritium]", "values": [{"measurement": "specificity of fixing on RARs (about 45 kDa radioactivity peak)", "setting": "[1]; F9 cells incubated with 20 nM tritiated ligand, co-incubation with an excess of 1000 times of cold compound I", "result": "specific"}, {"measurement": "molecules of ligand fixed to the RARs per cell (HPSEC peak surface standardized to number of cells)", "setting": "[1]", "result": "approximately 4,000 molecules per cell"}, {"measurement": "specific fixing on CRABP", "setting": "[2]; rat testicle homogenate, increasing concentrations of tritiated ligand, with or without 1 μm cold homolog ligand, two hours incubation", "result": "no specific fixing"}]}, {"molecule": "CC1=C(/C=C/C(C)=C/C=C/C(C)=C/C(=O)O)C(C)(C)CCC1", "note": "[retinoic acid]", "values": [{"measurement": "fixing on RARs in the presence of excess cold ligand", "setting": "[1]; F9 cells incubated with 20 nM tritiated retinoic acid, excess of 100 times of cold retinoic acid", "result": "inhibited"}, {"measurement": "molecules of ligand fixed to the RARs per cell (HPSEC peak surface standardized to number of cells)", "setting": "[1]", "result": "approximately 4,000 molecules per cell"}, {"measurement": "nature of the specific fixing on CRABP", "setting": "[2]; rat testicle cytosol", "result": "saturable and reversible"}, {"measurement": "non-specific fixing as share of the total fixing", "setting": "[2]; rat testicle cytosol, in the range of concentrations employed", "result": "less than 20%"}]}]}
